Source: the supplement of paper PMC11061612

Key:
Experiment in all cases: Bliss excess, mean over the matrix (fraction); higher = more synergy
[1] = test system: PSN1 (Pancreatic Carcinoma)
Method in brief: (§1)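 After 24 hours at 37°C and 5% CO2 in 1536-well plates, cells in DMEM/F12 or RPMI plus 10% FBS received two-drug dose matrices for 72 hours. Viability came from CellTiter-Glo 2.0 luminescence and was scaled as inhibition, anchored at 0 by vehicle wells and at 1 by blank wells. Combination Emax is taken as the second-highest inhibition in the matrix, and Bliss excess as the observed combination effect less EA + EB − EA·EB, with EA and EB the single-agent effects.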

[2] = test system: RCM-1 (Colorectal Carcinoma)
Method in brief: as §1

[3] = test system: REH (B-Lymphoblastic Leukemia)
Method in brief: as §1

[4] = test system: MKN45 (Gastric Carcinoma)
Method in brief: as §1

NB12 (Neuroblastoma) = test system: NB12 (Neuroblastoma)
Method in brief: as §1

[5] = test system: OVMIU (Ovarian Carcinoma)
Method in brief: as §1

[6] = test system: L-1236 (Hodgkin's Lymphoma)
Method in brief: as §1

[7] = test system: MFE-280 (Endometrial Carcinoma)
Method in brief: as §1

[8] = test system: PANC-03-27 (Pancreatic Carcinoma)
Method in brief: as §1

SK-MEL-2 (Melanoma) = test system: SK-MEL-2 (Melanoma)
Method in brief: as §1

[9] = test system: SHP-77 (Small Cell Lung Carcinoma)
Method in brief: as §1

[10] = test system: LK-2 (Squamous Cell Lung Carcinoma)
Method in brief: as §1

[11] = test system: OPM-2 (Plasma Cell Myeloma)
Method in brief: as §1

[12] = test system: VAL (B-Cell Non-Hodgkin's Lymphoma)
Method in brief: as §1

[13] = test system: TE-8 (Esophageal Squamous Cell Carcinoma)
Method in brief: as §1

[14] = test system: SK-PN-DW (Other Solid Carcinomas)
Method in brief: as §1

[15] = test system: COLO-680N (Esophageal Squamous Cell Carcinoma)
Method in brief: as §1

[16] = test system: HSC-39 (Gastric Carcinoma)
Method in brief: as §1

[17] = test system: NCI-H2342 (Lung Adenocarcinoma)
Method in brief: as §1

SF539 (Glioblastoma) = test system: SF539 (Glioblastoma)
Method in brief: as §1

| SMILES | Bliss excess [1] | Bliss excess [2] | Bliss excess [3] | Bliss excess [4] | Bliss excess (NB12 (Neuroblastoma)) | Bliss excess [5] | Bliss excess [6] | Bliss excess [7] | Bliss excess [8] | Bliss excess (SK-MEL-2 (Melanoma)) | Bliss excess [9] | Bliss excess [10] | Bliss excess [11] | Bliss excess [12] | Bliss excess [13] | Bliss excess [14] | Bliss excess [15] | Bliss excess [16] | Bliss excess [17] | Bliss excess (SF539 (Glioblastoma)) |
| --- | --- | --- | --- | --- | --- | --- | --- | --- | --- | --- | --- | --- | --- | --- | --- | --- | --- | --- | --- | --- |
| C[C@@H](Oc1cc(-c2cnn(C3CCNCC3)c2)cnc1N)c1c(Cl)ccc(F)c1Cl [Crizotinib] + CC1=C(C(=CC=C1)Cl)NC(=O)C2=CN=C(S2)NC3=CC(=NC(=N3)C)N4CCN(CC4)CCO [Dasatinib] (first compound max 10 µM, 7x7, partner max 2 µM) | -0.0469 | -0.0081 | -0.0153 | -0.048 | -0.0563 | 0.0041 | -0.0626 | 0.0091 | 0.0688 | -0.0362 | -0.0482 | -0.0103 | 0 | -0.0228 | 0.0208 | -0.0426 | -0.0005 | 0.0093 | -0.0108 | 0.0661 |
| O=C(c1cc(Cc2n[nH]c(=O)c3ccccc23)ccc1F)N1CCN(C(=O)C2CC2)CC1 [Olaparib] + COc1nnc2ccc(N3CCC(c4ccc(OCCN5CCN(C)C(=O)[C@H]5C)cc4)CC3)nn12 [AZD5153] (first compound max 10 µM, 7x7, partner max 1 µM) | -0.0337 | -0.0473 | 0.0378 | -0.0794 | -0.0203 | -0.0521 | -0.0184 | -0.0147 | -0.0776 | -0.0421 | 0.0113 | -0.0571 | 0.0122 | -0.0784 | -0.0706 | -0.0518 | -0.0446 | -0.072 | -0.0253 | -0.0258 |
| CN(CCO)CC[C@H](CSc1ccccc1)Nc1ccc(S(=O)(=O)NC(=O)c2ccc(N3CCC([C@@H](O)c4ccccc4-c4ccc(Cl)cc4)CC3)cc2)cc1S(=O)(=O)C(F)(F)F [AZD4320] + CS(=O)(=O)CCNCc1ccc(-c2ccc3ncnc(Nc4ccc(OCc5cccc(F)c5)c(Cl)c4)c3c2)o1 [Lapatinib] (first compound max 1 µM, 7x7, partner max 10 µM) | -0.0405 | 0.0202 | 0.0721 | -0.0888 | 0.0902 | 0.106 | -0.0252 | 0.0411 | 0.023 | -0.0501 | 0.159 | 0.0876 | 0.0503 | 0.0503 | 0.0281 | -0.0829 | -0.0042 | 0.0057 | -0.0137 | -0.0026 |
| O=C(c1cc(Cc2n[nH]c(=O)c3ccccc23)ccc1F)N1CCN(C(=O)C2CC2)CC1 [Olaparib] + CN(CC[C@H](CSC1=CC=CC=C1)NC2=C(C=C(C=C2)S(=O)(=O)NC(=O)C3=CC=C(C=C3)N4CCC(CC4)[C@H](C5=CC=CC=C5C6=CC=C(C=C6)Cl)O)S(=O)(=O)C(F)(F)F)CCO [AZD4320] (first compound max 10 µM, 7x7, partner max 1 µM) | -0.0224 | -0.0431 | 0.0835 | -0.0428 | 0.0362 | -0.0979 | -0.0506 | 0.0045 | -0.0341 | -0.0397 | 0.0133 | 0.0748 | 0.0334 | 0.0212 | -0.0869 | 0.0012 | -0.0598 | -0.0172 | -0.018 | -0.017 |
| N#Cc1cnc(Nc2cc(NC[C@H]3CNCCO3)c(C(F)(F)F)cn2)cn1 [SRA737] + Nc1ccn([C@@H]2O[C@H](CO)[C@@H](O)C2(F)F)c(=O)n1 [Gemcitabine] (first compound max 10 µM, 7x7, partner max 0.3 µM) | 0.0721 | 0.138 | 0.0113 | -0.0613 | 0.0372 | -0.0588 | 0.0485 | 0.0527 | -0.0023 | 0.0686 | 0.141 | 0.141 | 0.0238 | -0.125 | -0.022 | -0.0377 | 0.0092 | 0.0564 | 0.14 | 0.0222 |
| O=C(c1cc(Cc2n[nH]c(=O)c3ccccc23)ccc1F)N1CCN(C(=O)C2CC2)CC1 [Olaparib] + CC1(C)CCC(CN2CCN(c3ccc(C(=O)NS(=O)(=O)c4ccc(NCC5CCOCC5)c([N+](=O)[O-])c4)c(Oc4cnc5[nH]ccc5c4)c3)CC2)=C(c2ccc(Cl)cc2)C1 [Venetoclax] (first compound max 10 µM, 7x7, partner max 1 µM) | -0.0231 | -0.0304 | 0.163 | -0.0424 | 0.0811 | -0.067 | -0.0009 | -0.053 | -0.0675 | 0.0044 | -0.0028 | 0.0039 | 0.0309 | 0.0181 | -0.0825 | 0.0049 | -0.0584 | 0.0033 | -0.0201 | -0.0105 |
| C[C@@H](Nc1cc(F)cc(F)c1)c1cc(C(=O)N(C)C)cc2c(=O)cc(N3CCOCC3)oc12 [AZD8186] + C1CN(CCC1(C(=O)N[C@@H](CCO)C2=CC=C(C=C2)Cl)N)C3=NC=NC4=C3C=CN4 [AZD5363] (first compound max 10 µM, 7x7, partner max 10 µM) | -0.0065 | 0.0062 | -0.023 | -0.038 | -0.0305 | -0.0719 | -0.0371 | -0.0505 | -0.0239 | -0.0285 | -0.0913 | 0.0061 | -0.0756 | -0.0608 | -0.0543 | -0.0137 | -0.0335 | -0.0271 | 0.0003 | 0.0225 |
| CN(CCO)CC[C@H](CSc1ccccc1)Nc1ccc(S(=O)(=O)NC(=O)c2ccc(N3CCC([C@@H](O)c4ccccc4-c4ccc(Cl)cc4)CC3)cc2)cc1S(=O)(=O)C(F)(F)F [AZD4320] + Nc1ccn([C@@H]2O[C@H](CO)[C@@H](O)C2(F)F)c(=O)n1 [Gemcitabine] (first compound max 1 µM, 7x7, partner max 0.3 µM) | -0.0027 | -0.0271 | 0.0126 | -0.0393 | 0.0268 | 0.0028 | -0.0377 | -0.0216 | -0.0203 | -0.0453 | 0.0333 | 0.083 | 0.0089 | -0.0044 | 0.0054 | -0.0422 | -0.08 | -0.0867 | 0.0364 | -0.0356 |
| CN(CCO)CC[C@H](CSc1ccccc1)Nc1ccc(S(=O)(=O)NC(=O)c2ccc(N3CCC([C@@H](O)c4ccccc4-c4ccc(Cl)cc4)CC3)cc2)cc1S(=O)(=O)C(F)(F)F [AZD4320] + CC(=O)O[C@H]1C(=O)[C@@]2(C)[C@H]([C@H](OC(=O)c3ccccc3)[C@]3(O)C[C@H](OC(=O)[C@H](O)[C@@H](NC(=O)c4ccccc4)c4ccccc4)C(C)=C1C3(C)C)[C@]1(OC(C)=O)CO[C@@H]1C[C@@H]2O [Paclitaxel] (first compound max 1 µM, 7x7, partner max 3 µM) | 0.0166 | 0.0793 | 0.0132 | -0.121 | 0.0333 | 0.0232 | 0.0186 | 0.171 | 0.0599 | 0.148 | -0.0369 | 0.0318 | 0.023 | 0.0018 | 0.0954 | 0.0738 | 0.092 | 0.0069 | 0.0455 | 0.0404 |
| N#Cc1cnc(Nc2cc(NC[C@H]3CNCCO3)c(C(F)(F)F)cn2)cn1 [SRA737] + O=c1[nH]cc(F)c(=O)[nH]1 [5-Fluorouracil] (first compound max 10 µM, 7x7, partner max 20 µM) | 0.0184 | -0.0009 | 0.0356 | -0.0689 | -0.0626 | -0.0569 | -0.0358 | -0.0423 | 0.0112 | -0.025 | 0.0009 | 0.0756 | 0.006 | – | -0.0279 | 0.0243 | – | -0.0252 | -0.0171 | 0.0471 |
| N#Cc1cnc(Nc2cc(NC[C@H]3CNCCO3)c(C(F)(F)F)cn2)cn1 [SRA737] + C=CCn1c(=O)c2cnc(Nc3ccc(N4CCN(C)CC4)cc3)nc2n1-c1cccc(C(C)(C)O)n1 [AZD1775] (first compound max 10 µM, partner max 1 µM) | 0.0375 | 0.0488 | 0.162 | -0.0475 | 0.0199 | 0.0717 | -0.0475 | 0.0289 | -0.0233 | 0.098 | 0.0512 | 0.115 | 0.106 | 0.0116 | -0.0377 | 0.0812 | 0.0422 | 0.0943 | 0.0225 | 0.0293 |
| C[C@@H]1COCCN1c1cc(C2([S@](C)(=N)=O)CC2)nc(-c2ccnc3[nH]ccc23)n1 [AZD6738] + Nc1ccn([C@@H]2O[C@H](CO)[C@@H](O)C2(F)F)c(=O)n1 [Gemcitabine] (first compound max 10 µM, 7x7, partner max 0.3 µM) | 0.0209 | 0.0156 | 0.0497 | -0.0824 | -0.012 | -0.0138 | 0.0294 | 0.0731 | -0.0185 | 0.0586 | 0.0746 | 0.128 | 0.0289 | -0.108 | 0.0028 | -0.0579 | 0.0393 | -0.0049 | 0.086 | 0.0251 |
| C[C@@H]1COCCN1c1cc(C2([S@](C)(=N)=O)CC2)nc(-c2ccnc3[nH]ccc23)n1 [AZD6738] + C1CC(C1)(C(=O)[O-])C(=O)[O-].N.N.[Pt+2] [Carboplatin] (first compound max 10 µM, 7x7, partner max 10 µM) | -0.0278 | -0.0443 | 0.0175 | -0.104 | -0.0444 | -0.0369 | -0.0366 | -0.0617 | -0.0554 | -0.005 | 0.0138 | -0.04 | -0.051 | -0.0465 | -0.0806 | -0.0517 | -0.0073 | -0.0265 | -0.0422 | -0.0835 |
| C=CCn1c(=O)c2cnc(Nc3ccc(N4CCN(C)CC4)cc3)nc2n1-c1cccc(C(C)(C)O)n1 [AZD1775] + Nc1ccn([C@@H]2O[C@H](CO)[C@@H](O)C2(F)F)c(=O)n1 [Gemcitabine] (first compound max 1 µM, partner max 0.3 µM) | 0.0451 | 0.0233 | -0.0139 | -0.116 | 0.0471 | -0.025 | -0.0076 | -0.0175 | -0.0383 | -0.0156 | 0.0032 | 0.117 | 0.0255 | – | -0.0247 | -0.0347 | 0.0195 | 0.0379 | 0.0724 | 0.0282 |
